Article PMC8290231 (Cancer Medicine, 2021)
Read-outs that look alike come from different tables or passages of the source.

Tests used:
[1] = test system: A204; assay: CCK-8 cell proliferation assay; type: cell-based; conditions: Homo sapiens, read-out: antiproliferative IC50, A204
Procedure: (§1) The base medium for MDA‐MB‐453 cell line is DMEM medium (CORNING, USA). All other cell lines were cultured in RPMI‐1640 medium supplemented with 10% FBS, 100 U/ml of penicillin, and […] of streptomycin in 5% CO2 at 37℃. The cells in the logarithmic growth phase were used for the experiments.
(§2) Cells were seeded in 96‐well plate in complete medium (1000–6000 cells/well) and cultured for overnight. Then the cells were exposed to gradient concentrations (0.0005–10 μM) of compounds. Cell proliferation was analyzed by Cell Counting Kit 8 (CK04, Dojindo Laboratories, Japan) after co‐incubation for a further 72 h. IC50 values were calculated by fitting of concentration–response curves using GraphPad Prism 8.01 software. Each assay was repeated at least three times.
(§3) The expression and activation levels of FGFR1–4 in these cells were determined via western blot experiments (Figure S1).

[2] = test system: A549; assay: CCK-8 cell proliferation assay; type: cell-based; conditions: Homo sapiens, A549, 72 h, read-out: antiproliferative IC50, A549
Procedure: as §1, §2, §3

[3] = test system: H1581; assay: CCK-8 cell proliferation assay; type: cell-based; conditions: Homo sapiens, read-out: antiproliferative IC50, H1581
Procedure: as §1, §2, §3

[4] = test system: KATOIII; assay: CCK-8 cell proliferation assay; type: cell-based; conditions: Homo sapiens, KATO III, read-out: antiproliferative IC50, KATOIII
Procedure: as §1, §2, §3

[5] = test system: MDA‐MB‐231; assay: CCK-8 cell proliferation assay; type: cell-based; conditions: Homo sapiens, MDA-MB-231, 72 h
Procedure: as §1, §2, §3

[6] = test system: MDA‐MB‐453; assay: CCK-8 cell proliferation assay; type: cell-based; conditions: Homo sapiens, read-out: antiproliferative IC50, MDA‐MB‐453
Procedure: as §1, §2, §3

[7] = test system: MKN‐1; assay: CCK-8 cell proliferation assay; type: cell-based; conditions: Homo sapiens, read-out: antiproliferative IC50, MKN‐1
Procedure: as §1, §2, §3

[8] = test system: NCI‐H716; assay: CCK-8 cell proliferation assay; type: cell-based; conditions: Homo sapiens, read-out: antiproliferative IC50, NCI‐H716
Procedure: as §1, §2, §3

[9] = test system: RT112; assay: CCK-8 cell proliferation assay; type: cell-based; conditions: Homo sapiens, read-out: antiproliferative IC50, RT112
Procedure: as §1, §2, §3

[10] = test system: Ba/F3(+IL‐3); assay: CCK-8 proliferation assay in parental Ba/F3 cells; type: cell-based; conditions: Mus musculus, read-out: IC50 (μΜ) Ba/F3(+IL‐3)
Procedure: (§4) The Ba/F3 cell lines stably expressing FGFR1, FGFR1‐V561M, FGFR1‐V561F, FGFR1‐K656N, and FGFR1‐K656E were self‐established through electroporation pCDNA3.1‐TEL plasmids using the Amaxa Cell Line Nucleofector Kit V (Lonza, Cologne, Germany). Stable cell lines were selected by G418 (Merck, USA) and then withdrawal of IL‐3 (R&D). […] Parental Ba/F3 cells were maintained in RPMI 1640 supplemented with 10% FBS, 100 U/ml of penicillin, […] of streptomycin, and 10 ng/ml of IL‐3, while all Ba/F3 stable cell lines were cultured in the same medium without IL‐3.
as §2
(§5) There is, however, no commercially available FGFR1 mutant kinase to validate this. Therefore, we constructed Ba/F3 model cells stably expressing FGFR1‐WT, K656E, K656N, V561M, and V561F mutations.

[11] = test system: SNU16; assay: CCK-8 cell proliferation assay; type: cell-based; conditions: Homo sapiens, SNU-16, 72 h, read-out: antiproliferative IC50, SNU16
Procedure: as §1, §2, §3

[12] = test system: Ba/F3‐FGFR1; assay: CCK-8 proliferation assay in Ba/F3 stable cells; type: cell-based; conditions: Mus musculus, BaF3, 72 h, read-out: IC50 (μΜ) Ba/F3‐FGFR1
Procedure: as §4, §2, §5

[13] = test system: Ba/F3‐FGFR1‐K656E; assay: CCK-8 proliferation assay in Ba/F3 stable cells; type: cell-based; conditions: Mus musculus, BaF3, 72 h, read-out: IC50 (μΜ) Ba/F3‐FGFR1‐K656E
Procedure: as §4, §2, §5

[14] = test system: Ba/F3‐FGFR1‐K656N; assay: CCK-8 proliferation assay in Ba/F3 stable cells; type: cell-based; conditions: Mus musculus, BaF3, 72 h, read-out: IC50 (μΜ) Ba/F3‐FGFR1‐K656N
Procedure: as §4, §2, §5

[15] = test system: Ba/F3‐FGFR1‐V561F; assay: CCK-8 proliferation assay in Ba/F3 stable cells; type: cell-based; conditions: Mus musculus, BaF3, 72 h, read-out: IC50 (μΜ) Ba/F3‐FGFR1‐V561F
Procedure: as §4, §2, §5

[16] = test system: Ba/F3‐FGFR1‐V561M; assay: CCK-8 proliferation assay in Ba/F3 stable cells; type: cell-based
Procedure: as §4, §2, §5

[17] = test system: FGFR1‐V561M; conditions: no reference given; cited from earlier work
[18] = test system: FGFR1 WT; conditions: no reference given; cited from earlier work
[19] = test system: Ba/F3‐FGFR1‐V561F; assay: Cell cycle analysis by flow cytometry (propidium iodide); type: cell-based; conditions: 1000 nM
Procedure: About 6 × 10^5 cells were re‐suspended in 150 μl of BD Cytofix/Cytoperm buffer solution I for 10 min at room temperature. The cell suspensions were added with BD Cytofix/Cytoperm buffer solution II and incubated with another 10 min at room temperature, and then incubated with 200 μl of propidium iodide buffer (0.1 mg/ml) in the dark for 10 min at 4℃. Assays were performed with a Guava easyCyte flow cytometer (Merck, USA).

[20] = test system: Ba/F3‐FGFR1‐V561F; assay: Apoptosis assay by flow cytometry (Annexin V / 7-AAD); type: cell-based; conditions: 1000 nM
Procedure: After incubation, cells were collected and washed twice with pre‐cold PBS. About 6 × 10^5 cells were resuspended in 100 μl of 1× BD binding buffer solution (#556454, BD), and then stained with 7‐ADD (#559925, BD) and Annexin V‐PE (#556422, BD) in the dark for 15 min. Finally, 400 μl of 1×BD binding buffer solution were added to stop dyeing. The cells were then measured on a Guava easyCyte flow cytometer (Merck, USA).

In the case of `COCCNc1cc(NC(=O)N2CCCc3cc(CN4CCN(C)CC4=O)c(C=O)nc32)ncc1C#N` [FGF401], the IC50 ([1]; A204, FGFR1 amplification, CCK-8, 72 h) is reported as 8250 ± 708 nM, the IC50 ([2]; negative control, CCK-8, 72 h) is reported as greater than 10000 nM and the IC50 ([3]; NCI-H1581, FGFR1 amplification, CCK-8, 72 h) is reported as greater than 10000 nM. For the same molecule, the IC50 ([4]; FGFR2 amplification, CCK-8, 72 h) was 9380 ± 2860 nM, the IC50 ([5]; read-out: antiproliferative IC50, MDA‐MB‐231, negative control, CCK-8, 72 h) was greater than 10000 nM and the IC50 ([6]; MDA-MB-453, FGFR4‐Y367C, CCK-8, 72 h) was 62.3 ± 27.7 nM. It also gave an IC50 ([7]; MKN-1, negative control, CCK-8, 72 h) greater than 10000 nM, an IC50 ([8]; NCI-H716, FGFR2 amplification, CCK-8, 72 h) greater than 10000 nM and an IC50 ([9]; RT-112, FGFR3‐TACC3, CCK-8, 72 h) greater than 10000 nM.

For `CCN1C(=O)N(c2c(F)c(OC)cc(OC)c2F)Cc2cnc3[nH]c(CN4CCOCC4)cc3c21` [Pemigatinib], the IC50 ([10]; BaF3, parental cells with IL-3, CCK-8, 72 h) was 8980 ± 1400 nM.

In the case of `Cc1ccc(C(=O)Nc2ccc(CN3CCN(C)CC3)c(C(F)(F)F)c2)cc1C#Cc1cnc2cccnn12` [Ponatinib], the IC50 ([1]; A204, 72 h) is reported as 169 ± 134 nM, the IC50 [2] is reported as 990 ± 54.1 nM and the IC50 ([3]; NCI-H1581, 72 h) is reported as 128 ± 19.1 nM. The IC50 ([4]; 72 h) was 18.7 ± 0.8 nM, the IC50 ([5]; read-out: antiproliferative IC50, MDA‐MB‐231) was 701 ± 69.9 nM and the IC50 ([6]; MDA-MB-453, 72 h) was 707 ± 26.4 nM. The IC50 ([7]; MKN-1, 72 h) was 758 ± 72 nM, the IC50 ([8]; NCI-H716, 72 h) was 26.4 ± 2.9 nM and the IC50 ([9]; RT-112, 72 h) was 216 ± 8.2 nM. The IC50 [11] was 78.2 ± 10.2 nM, the IC50 [12] was 33 ± 2.8 nM and the IC50 [13] was 88 ± 28 nM. For the same molecule, the IC50 [14] was 47 ± 8.8 nM, the IC50 [15] was 56 ± 9 nM and the “fold increase of IC50 value, Ba/F3‐FGFR1‐V561M compared to Ba/F3‐FGFR1‐WT” value [16] was 10 fold. The IC50 ([16]; Mus musculus, BaF3, 72 h, read-out: IC50 (μΜ) Ba/F3‐FGFR1‐V561M) was 400 ± 11 nM, the IC50 ([10]; BaF3, 72 h) was 2380 ± 420 nM and the “reported FGFR1‐V561M kinase inhibitory activity” value [17] was 18.6. For the same molecule, the “reported FGFR1 WT kinase inhibitory activity” value [18] was 1.6.

In the case of `C=CC(=O)N1CC[C@H](n2nc(C#Cc3cc(OC)cc(OC)c3)c3c(N)ncnc32)C1` [TAS120], the “effect on cell cycle” value [19] is reported as “weak effect” and the effect on apoptosis [20] is reported as “weak effect”.
